In ChEMBL document CHEMBL1275354, “Anticonvulsant activity of 2,4(1H)-diarylimidazoles in mice and rats acute seizure models” (Bioorg Med Chem, 2010):
Activity calls are given as the source filed them. The calls are words filed in the database; no cut-off is given here.

How the values were obtained:
Mus musculus [1] = experiment: Neurotoxicity in ip dosed albino CF1 mouse assessed as minimum dose required to cause toxicity after 0.5 hrs by rotarod test; type: organism-based; details: in vivo
Mus musculus [2] = experiment: Neurotoxicity in albino CF1 mouse assessed as minimal motor impairment at 30 mg/kg, ip after 0.5 hrs by rotarod test; type: toxicity, organism-based; set-up: dose 30 mg/kg, route intraperitoneal; details: in vivo
Mus musculus [3] = experiment: Anticonvulsant activity against subcutaneous metrazole-induced seizures in ip dosed albino CF1 mouse assessed as minimum effective dose after 4 hrs; type: functional; details: albino CF1, 4 h, read-out: MED
Mus musculus [4] = experiment: Neurotoxicity in albino CF1 mouse assessed as minimal motor impairment at 30 mg/kg, ip after 4 hrs by rotarod test; type: toxicity, organism-based; set-up: dose 30 mg/kg, route intraperitoneal; details: in vivo
Mus musculus [5] = experiment: Neurotoxicity in albino CF1 mouse assessed as minimal motor impairment at 100 mg/kg, ip after 0.5 hrs by rotarod test; type: toxicity, organism-based; set-up: dose 100 mg/kg, route intraperitoneal; details: in vivo
Mus musculus [6] = experiment: Neurotoxicity in albino CF1 mouse assessed as minimal motor impairment at 100 mg/kg, ip after 4 hrs by rotarod test; type: toxicity, organism-based; set-up: dose 100 mg/kg, route intraperitoneal; details: in vivo
Mus musculus [7] = experiment: Neurotoxicity in albino CF1 mouse assessed as minimal motor impairment at 300 mg/kg, ip after 4 hrs by rotarod test; type: toxicity, organism-based; set-up: dose 300 mg/kg, route intraperitoneal; details: in vivo
Mus musculus [8] = experiment: Anticonvulsant activity in albino CF1 mouse assessed as protection against maximal electroshock-induced seizures at 100 mg/kg, ip after 4 hrs; type: functional, organism-based; set-up: dose 100 mg/kg
Mus musculus [9] = experiment: Anticonvulsant activity in albino CF1 mouse assessed as protection against maximal electroshock-induced seizures at 300 mg/kg, ip after 0.5 hrs; type: functional, organism-based; set-up: dose 300 mg/kg
Mus musculus [10] = experiment: Anticonvulsant activity in albino CF1 mouse assessed as protection against maximal electroshock-induced seizures at 300 mg/kg, ip after 4 hrs; type: functional, organism-based; set-up: dose 300 mg/kg
Mus musculus [11] = experiment: Anticonvulsant activity in albino CF1 mouse assessed as protection against subcutaneous metrazole-induced seizures at 30 mg/kg, ip after 0.5 hrs; type: functional, organism-based; set-up: dose 30 mg/kg
Mus musculus [12] = experiment: Anticonvulsant activity in albino CF1 mouse assessed as protection against subcutaneous metrazole-induced seizures at 30 mg/kg, ip after 4 hrs; type: functional, organism-based; set-up: dose 30 mg/kg
Mus musculus [13] = experiment: Anticonvulsant activity in albino CF1 mouse assessed as protection against subcutaneous metrazole-induced seizures at 100 mg/kg, ip after 0.5 hrs; type: functional, organism-based; set-up: dose 100 mg/kg
Mus musculus [14] = experiment: Anticonvulsant activity in albino CF1 mouse assessed as protection against subcutaneous metrazole-induced seizures at 100 mg/kg, ip after 4 hrs; type: functional, organism-based; set-up: dose 100 mg/kg
Mus musculus [15] = experiment: Anticonvulsant activity in albino CF1 mouse assessed as protection against subcutaneous metrazole-induced seizures at 300 mg/kg, ip after 0.5 hrs; type: functional, organism-based; set-up: dose 300 mg/kg
Mus musculus [16] = experiment: Anticonvulsant activity in albino CF1 mouse assessed as protection against subcutaneous metrazole-induced seizures at 300 mg/kg, ip after 4 hrs; type: functional, organism-based; set-up: dose 300 mg/kg
Mus musculus [17] = experiment: Neurotoxicity in albino CF1 mouse assessed as minimal motor impairment at 30 to 300 mg/kg, po after 4 hrs by rotarod test; type: toxicity, organism-based; set-up: dose 30-300 mg/kg, route oral; details: in vivo
Mus musculus [18] = experiment: Anticonvulsant activity in albino CF1 mouse assessed as protection against maximal electroshock-induced seizures at 30 mg/kg, ip after 0.5 hrs; type: functional, organism-based; set-up: dose 30 mg/kg
Mus musculus [19] = experiment: Anticonvulsant activity in albino CF1 mouse assessed as protection against maximal electroshock-induced seizures at 30 mg/kg, ip after 4 hrs; type: functional, organism-based; set-up: dose 30 mg/kg
Mus musculus [20] = experiment: Neurotoxicity in ip dosed albino CF1 mouse assessed as minimum dose required to cause toxicity after 4 hrs by rotarod test; type: organism-based; details: in vivo
Mus musculus [21] = experiment: Anticonvulsant activity against maximal electroshock-induced seizures in ip dosed albino CF1 mouse assessed as minimum effective dose after 0.5 hrs; type: functional; details: read-out: MED
Mus musculus [22] = experiment: Anticonvulsant activity against maximal electroshock-induced seizures in ip dosed albino CF1 mouse assessed as minimum effective dose after 4 hrs; type: functional; details: read-out: MED
Mus musculus [23] = experiment: Anticonvulsant activity against subcutaneous metrazole-induced seizures in ip dosed albino CF1 mouse assessed as minimum effective dose after 0.5 hrs; type: functional; details: albino CF1, 0.5 h, read-out: MED
Mus musculus [24] = experiment: Neurotoxicity in albino CF1 mouse assessed as minimal motor impairment at 30 to 300 mg/kg, ip after 0.5 hrs by rotarod test; details: in vivo
Mus musculus [25] = experiment: Anticonvulsant activity in albino CF1 mouse assessed as protection against maximal electroshock-induced seizures at 100 mg/kg, ip after 0.5 hrs; type: functional, organism-based; set-up: dose 100 mg/kg
Mus musculus [26] = experiment: Neurotoxicity in albino CF1 mouse assessed as minimal motor impairment at 300 mg/kg, ip after 0.5 hrs by rotarod test; type: toxicity, organism-based; set-up: dose 300 mg/kg, route intraperitoneal; details: in vivo

| Compound | MED (Mus musculus [1]) [mg/kg] | Activity (Mus musculus [2]) | minimal effective dose (Mus musculus [3]) [mg/kg] | Activity (Mus musculus [4]) | Activity (Mus musculus [6]) | Activity (Mus musculus [7]) | Activity (Mus musculus [8]) | Activity (Mus musculus [9]) | Activity (Mus musculus [11]) | Activity (Mus musculus [12]) | Activity (Mus musculus [13]) | Activity (Mus musculus [14]) | Activity (Mus musculus [17]) | Activity (Mus musculus [18]) | Activity (Mus musculus [19]) | MED (Mus musculus [20]) [mg/kg] | minimal effective dose (Mus musculus [21]) [mg/kg] | minimal effective dose (Mus musculus [22]) [mg/kg] | minimal effective dose (Mus musculus [23]) [mg/kg] | Activity (Mus musculus [24]) | also measured |
| --- | --- | --- | --- | --- | --- | --- | --- | --- | --- | --- | --- | --- | --- | --- | --- | --- | --- | --- | --- | --- | --- |
| Clc1cccc(-c2nc(-c3ccccc3)c[nH]2)c1 | 100 | Non-toxic | > 300 | Non-toxic | Non-toxic | Non-toxic | inactive | Active | inactive | inactive | inactive | inactive | Non-toxic | inactive | inactive | > 300 | 100 | 100 | 100 | Non-toxic | Activity (Mus musculus [5]): Non-toxic; Activity (Mus musculus [10]): Active; Activity (Mus musculus [15]): Active; Activity (Mus musculus [16]): inactive |
| c1ccc(-c2c[nH]c(-c3ccsc3)n2)cc1 | 100 | Non-toxic | > 300 | Non-toxic | Non-toxic | – | inactive | Active | inactive | inactive | inactive | inactive | Non-toxic | inactive | inactive | > 300 | 100 | > 300 | > 300 | Non-toxic | Activity (Mus musculus [25]): Active; Activity (Mus musculus [15]): inactive; Activity (Mus musculus [16]): inactive |
| c1ccc(-c2c[nH]c(C3CCCCC3)n2)cc1 | 100 | Non-toxic | > 300 | Non-toxic | Non-toxic | Non-toxic | inactive | – | inactive | inactive | – | inactive | Non-toxic | inactive | inactive | > 300 | > 300 | > 300 | > 300 | Non-toxic | Activity (Mus musculus [25]): inactive; Activity (Mus musculus [10]): inactive |
| c1ccc(-c2c[nH]c(-c3ccoc3)n2)cc1 | 100 | Non-toxic | > 300 | Non-toxic | Non-toxic | Toxic | inactive | Active | inactive | inactive | inactive | inactive | Non-toxic | inactive | inactive | > 100 | 100 | > 300 | > 300 | Non-toxic | Activity (Mus musculus [26]): Toxic |
| COc1cccc(-c2nc(-c3ccccc3)c[nH]2)c1 | > 30 | Non-toxic | > 300 | Non-toxic | Non-toxic | Non-toxic | – | Active | inactive | inactive | inactive | inactive | Non-toxic | inactive | inactive | > 300 | > 30 | 100 | > 300 | Non-toxic | Activity (Mus musculus [25]): Active; Activity (Mus musculus [5]): Toxic; Activity (Mus musculus [10]): Active |
| c1ccc(-c2c[nH]c(-c3cc4ccccc4o3)n2)cc1 | > 300 | Non-toxic | > 300 | Non-toxic | Non-toxic | – | inactive | inactive | inactive | inactive | inactive | inactive | Non-toxic | inactive | inactive | > 300 | > 300 | > 300 | > 300 | Non-toxic | Activity (Mus musculus [25]): inactive; Activity (Mus musculus [10]): inactive; Activity (Mus musculus [15]): inactive; Activity (Mus musculus [16]): inactive |
| c1ccc(-c2c[nH]c(-c3ccco3)n2)cc1 | 100 | Non-toxic | > 300 | Non-toxic | Non-toxic | Toxic | inactive | Active | inactive | inactive | inactive | inactive | – | inactive | inactive | 100 | 100 | 100 | > 300 | Non-toxic | Activity (Mus musculus [5]): Non-toxic; Activity (Mus musculus [26]): Toxic; Activity (Mus musculus [10]): Active; Activity (Mus musculus [15]): inactive; Activity (Mus musculus [16]): inactive |
| FC(F)(F)c1ccc(-c2c[nH]c(-c3ccccc3)n2)cc1 | 100 | Non-toxic | 100 | Non-toxic | Non-toxic | Toxic | inactive | Active | inactive | inactive | inactive | inactive | Non-toxic | inactive | inactive | 100 | 100 | > 300 | > 300 | Non-toxic | Activity (Mus musculus [15]): inactive; Activity (Mus musculus [16]): Active |
| c1ccc(-c2c[nH]c(-c3ccncc3)n2)cc1 | 100 | Non-toxic | > 300 | Non-toxic | Non-toxic | Toxic | – | Active | inactive | inactive | inactive | inactive | – | inactive | inactive | 100 | 100 | 100 | > 300 | Non-toxic | Activity (Mus musculus [26]): Toxic; Activity (Mus musculus [10]): Active; Activity (Mus musculus [15]): inactive |
| O=[N+]([O-])c1ccc(-c2nc(-c3ccccc3)c[nH]2)cc1 | > 300 | Non-toxic | 100 | Non-toxic | Non-toxic | Non-toxic | – | Active | inactive | inactive | inactive | inactive | Non-toxic | inactive | inactive | > 300 | 100 | 100 | > 300 | Non-toxic | Activity (Mus musculus [5]): Non-toxic; Activity (Mus musculus [26]): Non-toxic; Activity (Mus musculus [10]): Active; Activity (Mus musculus [15]): inactive |
